Activity calls are given as the source filed them. No cut-off for these calls is given here.
What was measured:
[1] = system: PC-3; assay: Down regulation of EGFR protein expression in human PC3 cells at 48 hrs IC50 incubated for 48 hrs by Western immunoblot assay relative to control; type: functional
[2] = biological target: T1, Mitogen-activated protein kinase; ERK1/ERK2 (Homo sapiens) (UniProt P27361+P28482); assay: Effect on ERK 1/2 phosphorylation at T202/Y204 residues in human PC3 cells assessed as decrease in ERK1/2 phosphorylation at T202/Y204 at 48 hrs IC50 incubated for 48 hrs by Western immunoblot assay; type: cell-based
T1 sequence (P27361 whole entry, looked up): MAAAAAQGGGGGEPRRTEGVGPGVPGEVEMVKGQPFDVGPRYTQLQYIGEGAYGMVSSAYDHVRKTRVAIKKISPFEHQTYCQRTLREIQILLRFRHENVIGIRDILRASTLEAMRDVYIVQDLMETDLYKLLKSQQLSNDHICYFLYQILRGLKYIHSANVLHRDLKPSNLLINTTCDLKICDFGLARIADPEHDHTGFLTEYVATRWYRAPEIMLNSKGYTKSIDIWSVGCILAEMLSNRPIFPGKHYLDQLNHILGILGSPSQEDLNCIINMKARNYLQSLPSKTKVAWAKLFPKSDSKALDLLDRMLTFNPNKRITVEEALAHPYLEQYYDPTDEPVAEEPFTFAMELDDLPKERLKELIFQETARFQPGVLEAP
T1 sequence (P28482 whole entry, looked up): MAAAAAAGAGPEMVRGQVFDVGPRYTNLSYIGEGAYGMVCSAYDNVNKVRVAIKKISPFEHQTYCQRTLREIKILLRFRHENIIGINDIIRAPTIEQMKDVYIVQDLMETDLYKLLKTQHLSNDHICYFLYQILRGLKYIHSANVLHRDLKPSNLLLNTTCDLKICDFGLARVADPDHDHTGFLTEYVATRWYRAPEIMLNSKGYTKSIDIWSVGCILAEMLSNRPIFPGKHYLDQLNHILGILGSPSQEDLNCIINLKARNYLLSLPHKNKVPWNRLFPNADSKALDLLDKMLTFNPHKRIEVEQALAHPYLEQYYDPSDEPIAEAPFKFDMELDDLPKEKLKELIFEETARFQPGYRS

[3] = system: DU-145; assay: Cytotoxicity against human DU145 cells assessed as decrease in cell viability after 48 hrs by MTS assay; type: functional, cell-based; conditions: DU-145, 48 h
[4] = system: Quadruplex DNA; assay: Binding affinity to synthetic 5'Dabcyl/3'-FAM-labeled telomeric 22 G4 quadruplex DNA folded DNA assessed as enthalpy change by isothermal titration calorimetry; type: nucleic-acid assay
[5] = system: DU-145; assay: Effect on ERK 2 basal level in human DU145 cells assessed as reduction in ERK 2 basal level at 48 hrs IC50 incubated for 48 hrs by Western immunoblot assay; type: ADME, cell-based; conditions: du-145, 48 h
[6] = system: PC-3; assay: Effect on telomeric C-circle DNA in human PC3 cell assessed as alternative telomere maintenance based increase in telomeric C-circle DNA level at 48 hrs 0.5 times IC50 treated for every week for 56 days [32P]-labeled (CCCTAA)3 probe incubated for 56 days followed by post incubation of 8 hrs in presence of Bacillus phage phi29 DNA polymerase and further heat inactivation at 65 degreeC for 20 mins by dot blot based CC assay; type: functional
[7] = species: Homo sapiens; assay: Effect on telomere DNA in human PC3 cell assessed as increase in telomere DNA length at 48 hrs 0.5 times IC50 treated for every week for 56 days by pulsed field electrophoresis/southern blot based densitometric analysis
[8] = system: DU-145; assay: Induction of apoptosis in human DU145 cells assessed as increase in cleaved PARP1 level after 48 to 96 hrs by Western blot analysis; type: functional, cell-based
[9] = system: DU-145; assay: Effect on ERK 1 basal level in human DU145 cells assessed as reduction in ERK 1 basal level at 48 hrs IC50 incubated for 48 hrs by Western immunoblot assay; type: ADME, cell-based; conditions: du-145, 48 h
[10] = system: DU-145; assay: Effect on human DU145 cell growth assessed as population doubling at 48 hr IC50 incubated for 96 hrs by cell counter based trypan blue exclusion assay (reference value: 2.89); type: functional
[11] = system: DU-145; assay: Effect on AKT basal level in heterozygous PTEN-positive human DU145 cells assessed as reduction in AKT basal level at 48 hrs IC50 incubated for 48 hrs by Western immunoblot assay; type: ADME, cell-based; conditions: du-145, 48 h
[12] = system: PC-3; assay: Effect on human PC3 cell growth assessed as population doubling at 48 hr IC50 incubated for 96 hrs by cell counter based trypan blue exclusion assay (reference value: 2.6); type: functional
[13] = system: DU-145; assay: Down regulation of EGFR protein expression in human DU145 cells after 24 hrs by Western immunoblot assay; type: functional, cell-based
[14] = biological target: T1, Mitogen-activated protein kinase; ERK1/ERK2 (Homo sapiens); assay: Effect on ERK 1/2 phosphorylation at T202/Y204 residues in human DU145 cells assessed as increase in ERK1/2 phosphorylation at T202/Y204 at 48 hrs IC50 incubated for 48 to 96 hrs by Western immunoblot assay; type: cell-based
[15] = biological target: RAC-alpha serine/threonine-protein kinase (Homo sapiens) (UniProt P31749); assay: Effect on AKT phosphorylation at S473 homozygous PTEN-deficient human PC3 cells as reduction in AKT phosphorylation at S473 residue at 48 hr IC50 incubated for 48 to 96 hrs by Western immunoblot assay
RAC-alpha serine/threonine-protein kinase (Homo sapiens), sequence (P31749 whole entry): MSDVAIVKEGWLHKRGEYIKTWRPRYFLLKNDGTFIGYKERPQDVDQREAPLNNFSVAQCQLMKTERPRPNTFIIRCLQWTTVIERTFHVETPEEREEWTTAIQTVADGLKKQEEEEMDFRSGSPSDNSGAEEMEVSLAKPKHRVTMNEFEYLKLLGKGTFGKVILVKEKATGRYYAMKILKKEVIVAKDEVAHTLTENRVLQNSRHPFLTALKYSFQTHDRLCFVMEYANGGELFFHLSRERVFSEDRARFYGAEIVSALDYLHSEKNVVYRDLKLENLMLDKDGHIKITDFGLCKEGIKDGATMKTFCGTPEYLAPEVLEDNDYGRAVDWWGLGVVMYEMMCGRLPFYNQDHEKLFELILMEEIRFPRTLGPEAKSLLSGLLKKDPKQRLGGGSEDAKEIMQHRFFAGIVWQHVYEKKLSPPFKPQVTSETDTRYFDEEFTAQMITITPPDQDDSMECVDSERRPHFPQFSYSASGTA

[16] = system: Quadruplex DNA; assay: Binding affinity to synthetic 5'Dabcyl/3'-FAM-labeled telomeric 22 G4 quadruplex DNA folded DNA assessed as entropy change by isothermal titration calorimetry; type: nucleic-acid assay
[17] = biological target: RAC-alpha serine/threonine-protein kinase (Homo sapiens) (UniProt P31749); assay: Effect on AKT phosphorylation at S473 in heterozygous PTEN-positive human DU145 cells as reduction in AKT phosphorylation at S473 residue at 48 hr IC50 incubated for 48 hrs by Western immunoblot assay
[18] = system: PC-3; assay: Effect on human PC3 cell growth assessed as reduction in cell growth at 72 hrs 0.5 times IC50 treated for every week for 56 days by cell counter based trypan blue exclusion assay; type: functional
[19] = system: DU-145; assay: Down regulation of EGFR protein expression in human DU145 cells at 48 hrs IC50 incubated for 96 hrs by Western immunoblot assay relative to control; type: functional
[20] = system: PC-3; assay: Effect on AKT basal level in homozygous PTEN-deficient human PC3 cells assessed as reduction in AKT basal level at 48 hr IC50 incubated for 48 to 96 hrs by Western immunoblot assay; type: ADME, cell-based
[21] = system: DU-145; assay: Cytotoxicity against human DU145 cells assessed as decrease in cell viability after 24 hrs by MTS assay; type: functional, cell-based; conditions: DU-145, 24 h
[22] = system: DU-145; assay: Effect of EGFR protein expression in human DU145 cell at 48 hrs IC50 treated for every week for 56 days by Western immunoblotting analysis; type: functional, cell-based
[23] = species: Homo sapiens; assay: Effect on telomere DNA in human PC3 cells assessed as telomere DNA length at 48 hrs 0.5 times IC50 treated for every week for 56 days by pulsed field electrophoresis/southern blot based densitometric analysis (reference value: 4.6 +/- 0.3 kb); type: cell-based
[24] = system: DU-145; assay: Effect on human DU145 cell growth assessed as change in cell growth at 72 hrs 0.5 times IC50 treated for every week for 56 days by cell counter based trypan blue exclusion assay; type: functional
[25] = system: PC-3; assay: Down regulation of EGFR protein expression in human PC3 cells at 48 hrs IC50 incubated for 96 hrs by Western immunoblot assay relative to control; type: functional
[26] = system: PC-3; assay: Induction of apoptosis in human PC3 cells assessed as increase in cleaved PARP1 level after 48 to 96 hrs by Western blot analysis; type: functional, cell-based
[27] = system: Quadruplex DNA; assay: Binding affinity to synthetic 5'Dabcyl/3'-FAM-labeled EGFR 272 G4 quadruplex DNA folded DNA assessed as entropy change by isothermal titration calorimetry; type: nucleic-acid assay
[28] = system: PC-3; assay: Cytotoxicity against human PC3 cells assessed as decrease in cell viability after 24 hrs by MTS assay; type: functional, cell-based; conditions: PC-3, 24 h
[29] = system: PC-3; assay: Down regulation of EGFR protein expression in human PC3 cells after 24 hrs by Western immunoblot assay; type: functional, cell-based
[30] = system: PC-3; assay: Cytotoxicity against human PC3 cells assessed as decrease in cell viability after 72 hrs by MTS assay; type: functional, cell-based; conditions: PC-3, 72 h
[31] = system: Quadruplex DNA; assay: Binding affinity to synthetic 5'Dabcyl/3'-FAM-labeled EGFR 272 G4 quadruplex DNA folded DNA assessed as enthalpy change by isothermal titration calorimetry; type: nucleic-acid assay
[32] = system: PC-3; assay: Effect on ephithelial-mesenchymal transition in human PC3 cell assessed as increase in vimentin at 48 hrs 0.5 times IC50 treated for every week for 56 days by Western immunoblotting analysis; type: functional, cell-based
[33] = system: PC-3; assay: Effect of EGFR protein expression in human PC3 cell assessed as reduction in EGFR level at 48 hrs IC50 treated for every week for 56 days by Western immunoblotting analysis; type: functional
[34] = biological target: T1, Mitogen-activated protein kinase; ERK1/ERK2 (Homo sapiens); assay: Effect on ERK 1/2 phosphorylation at T202/Y204 residues in human PC3 cells assessed as decrease in ERK1/2 phosphorylation at T202/Y204 at 48 hrs IC50 incubated for 96 hrs by Western immunoblot assay; type: cell-based
[35] = system: PC-3; assay: Effect on ERK 1/2 basel level in human PC3 cells assessed as downregulation of ERK 1/2 basal level at 48 hrs IC50 incubated for 96 hrs by Western immunoblot assay; type: ADME, cell-based; conditions: pc-3, 96 h
[36] = system: PC-3; assay: Effect on ERK 1/2 basal level in human PC3 cells assessed as downregulation of ERK 1/2 basal level at 48 hrs IC50 incubated for 48 hrs by Western immunoblot assay; type: ADME, cell-based; conditions: pc-3, 48 h
[37] = system: Quadruplex DNA; assay: Stabilization of synthetic 5'Dabcyl/3'-FAM-labeled telomeric 22 G4 quadruplex DNA assessed as change in melting temperature by fluorescence melting assay; type: nucleic-acid assay
[38] = system: PC-3; assay: Effect on human PC3 cell growth assessed as no change in population doubling at 48 hr IC50 incubated for 48 hrs by cell counter based trypan blue exclusion assay; type: functional
[39] = system: Quadruplex DNA; assay: Stabilization of synthetic 5'Dabcyl/3'-FAM-labeled EGFR 272 G4 quadruplex DNA assessed as change in melting temperature by fluorescence melting assay; type: nucleic-acid assay
[40] = system: DU-145; assay: Cytotoxicity against human DU145 cells assessed as decrease in cell viability after 72 hrs by MTS assay; type: functional, cell-based; conditions: DU-145, 72 h
[41] = species: Homo sapiens; assay: Effect on telomere DNA in human DU145 cells assessed as telomere DNA length at 48 hrs 0.5 times IC50 treated for every week for 56 days by pulsed field electrophoresis/southern blot based densitometric analysis (reference value: 3.9 +/- 0.5 kb); type: cell-based
[42] = system: Quadruplex DNA; assay: Stabilization of synthetic 5'Dabcyl/3'-FAM-labeled EGFR 272 G4 quadruplex DNA assessed as change in melting temperature at 1 uM by Fluorescence melting assay; type: nucleic-acid assay
[43] = system: PC-3; assay: Effect on ephithelial-mesenchymal transition in human PC3 cell assessed as decrease in E-cadherin expression at 48 hrs 0.5 times IC50 treated for every week for 56 days by Western immunoblotting analysis; type: functional, cell-based
[44] = system: PC-3; assay: Cytotoxicity against human PC3 cells assessed as decrease in cell viability after 48 hrs by MTS assay; type: functional, cell-based; conditions: PC-3, 48 h

Question: Which results are given for `COc1ccccc1CNCCCN1C(=O)c2ccc3c4c(ccc(c24)C1=O)C(=O)N(CCCNCCCCN)C3=O`?
Answer: Activity [1]: 70 - 80%; Activity [2]: Active; IC50 [3]: 2730 nM; deltaH [4]: -8 kcal/mol; Activity [5]: Toxic; Activity [6]: Active; Activity [7]: Active; Activity [8]: Active; Activity [9]: Toxic; Activity [10]: 1.85; Activity [11]: Toxic; Activity [12]: 0.97; Activity [13]: Dose-dependent effect; Activity [14]: Active; Activity [15]: Active; deltaS [16]: -1.9 cal/mol.K; Activity [17]: inactive; Activity [18]: Active; Activity [19]: 20%; Activity [20]: Toxic; IC50 [21]: 4760 nM; Activity [22]: inactive; Activity [23]: 4.4 kilobase; Activity [24]: inactive; Activity [25]: 50%; Activity [26]: inactive; deltaS [27]: 18.9 cal/mol.K; IC50 [28]: 2800 nM; Activity [29]: Dose-dependent effect; IC50 [30]: 1460 nM; deltaH [31]: -1.1 kcal/mol; Activity [32]: Active; inhibition (INH) [33]: 100%; Activity [34]: inactive; Activity [35]: Toxic; Activity [36]: Toxic; Activity [37]: Active; Activity [38]: Active; Activity [39]: Active; IC50 [40]: 2050 nM; Activity [41]: 3.8 kilobase; Activity [42]: Active; Activity [43]: Active; IC50 [44]: 2440 nM

Question: Which results are given for `COc1ccc(CNCCCN2C(=O)c3ccc4c5c(ccc(c35)C2=O)C(=O)N(CCCNCc2ccc(OC)c(OC)c2OC)C4=O)c(OC)c1OC`?
Answer: Activity [1]: 70 - 80%; Activity [2]: Active; IC50 [3]: 2260 nM; deltaH [4]: -10.7 kcal/mol; Activity [6]: Active; Activity [7]: Active; Activity [8]: Active; Activity [9]: Toxic; Activity [10]: 2; Activity [11]: Toxic; Activity [12]: 0.51; Activity [13]: Dose-dependent effect; Activity [14]: Active; Activity [15]: Active; deltaS [16]: -10.1 cal/mol.K; Activity [17]: inactive; Activity [18]: Active; Activity [19]: 20%; Activity [20]: Toxic; IC50 [21]: 3460 nM; Activity [22]: inactive; Activity [23]: 4.5 kilobase; Activity [24]: inactive; Activity [26]: inactive; deltaS [27]: -46.4 cal/mol.K; IC50 [28]: 1360 nM; Activity [29]: Dose-dependent effect; IC50 [30]: 630 nM; deltaH [31]: -21.5 kcal/mol; Activity [32]: Active; inhibition (INH) [33]: 100%; Activity [34]: inactive; Activity [35]: Toxic; Activity [36]: Toxic; Activity [37]: Active; Activity [38]: Active; Activity [39]: Active; IC50 [40]: 1720 nM; Activity [41]: 3.8 kilobase; Activity [42]: Active; Activity [43]: Active; IC50 [44]: 970 nM
